Patent publication US20020040032A1, “Methods for stimulation of synthesis of synaptophysin in the central nervous system” (priority 2000, published 2002)

Legend:
[1] = tested on: synaptophysin; experiment: Time course of synaptophysin accumulation after administration to PC12 cells, Western immunoblot (Example 2); type: cell-based
Method: To determine the time course of synaptophysin accumulation in the extracellular fluid after administration of AIT-082 or NGF to PC12 cells, an experiment similar to the experiment of Example 1 was carried out using multiple time points. Five to six million PC12 cells were treated in RPMI 1640 and 0.5% FBS with doses of AIT-082 (10 nM-100 μM). […] Levels of synaptophysin in samples from conditioned media and cell lysates were measured by Western immunoblotting with anti-synaptophysin antibodies.

[2] = tested on: nerve growth factor (NGF), neurotrophin-3, and basic fibroblast growth factor (bFGF); conditions: reference 4 (Rathbone et al. 1999); cited from earlier work
[3] = tested on: synaptophysin; experiment: Synaptophysin levels in PC12 cells after treatment, Western immunoblot (Example 1); type: cell-based
Method: PC12 cells were first grown to 70-80% confluence in the regular medium. A day prior to the experiment, PC12 cells were subcultured uniformly onto the plate with minimum cellular aggregation/clumping to approximately 1×10^6 cells per 60-mm plate. The PC12 cells were then subjected to treatments with either AIT-082, NGF, bFGF or a combination as previously described (5). AIT-082 was added into separate plates at […]: 0, 5, 20, 30, 50, 100, 300 ng/ml and also 1, 3, 10, 30, 100 μg/ml. For comparative purposes, cultures were treated with NGF at 10 and 50 ng/ml, and bFGF was used at 50 ng/ml. Additional cultures contained both AIT-082 (300 ng/ml) and either NGF (50 ng/ml) or bFGF (50 ng/ml). These different agents were prepared in the same culture medium and added to the respective plate. Following incubation for 48 hours, the conditioned medium from each plate was collected.
Total proteins from the conditioned media were analyzed on a 12% polyacrylamide gel containing SDS (SDS-PAGE), and western blot analysis was performed in the Mini-PROTEAN II system of Bio-Rad as described previously (7). Levels of synaptophysin in the conditioned medium and the cell lysates (intracellular) were analyzed using an anti-synaptophysin antibody (Boehringer Mannheim). A biotinylated secondary antibody, horse anti-mouse (Boehringer Mannheim), was also used. The detection system was based on the avidin-biotinylated-complex (Vector labs, Burlingame, Calif.) and enzymatic color reactions.

[4] = tested on: PC12 cells; experiment: Differentiation of PC12 cells (Example 2); type: cell-based

## O=C(CCn1cnc2c(=O)[nH]cnc21)Nc1ccc(C(=O)O)cc1 [AIT-082, N-4-carboxyphenyl-3-(6-oxohydropurin-9-yl)propanamide]
[1]; 10 nM-100 μM, 6, 12, 24, 48, or 72 hours, each time point
  levels of synaptophysin in the conditioned medium vs. control: significantly increased
[1]; cell lysates, 10 nM-100 μM
  intracellular levels of synaptophysin: significant increase
[2]
  induction of expression of neurotrophins: can induce the expression of at least three neurotrophins
[3]; PC12 cells, conditioned medium, densitometry, FIG. 2
  dose giving the highest level of synaptophysin: 30 ng/mL
[3]; PC12 cells, dose-dependent from 5-30 ng/ml, FIG. 1 lanes 5-8 vs. lane 1
  amount of synaptophysin in the conditioned medium vs. control: increased
[3]; PC12 cells, doses above 30 ng/ml, increase not sustained to the same extent
  level of synaptophysin in the conditioned medium vs. control at higher doses: still greater than the control
[3]; PC12 cultures, cell lysates
  intracellular levels of synaptophysin vs. control: significant increase
[4]; cotreatment with NGF
  effect of cotreatment on NGF-mediated differentiation: enhanced NGF-mediated differentiation

## NGF: Nerve growth factor procured from Life Technologies
[4]
  phenotype after treatment: sympathetic neuronal phenotypes
